Results as given in the supplement of paper PMC10307832.

What was measured:
Experiment in all cases: relative viability (nuclei count vs DMSO), 5 days (fraction); higher = more cells survive
[1] = compound: OCc1c[nH]c2ccccc12 [Indole-3-carbinol] + O=C(CCCCCCC(=O)Nc1ccccc1)NO [Vorinostat] (partner 1 µM)
Method in brief: (§1)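 Lung cancer cell lines were seeded in 1536-well plates and dosed by pin tool the next day, with either a single drug or a fixed anchor-drug dose combined with five library-drug doses (not always all listed) spaced in √10 steps. Five days later, one step fixed the cells and stained their nuclei (final 0.05% Triton X-100, 1% formaldehyde, 1 ug/ml Hoechst), and nuclei were counted on 4× images. Relative viability is the nuclei count in treated wells divided by the count in vehicle wells, and each value is the median of duplicate plates.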

[2] = compound: OCc1c[nH]c2ccccc12 [Indole-3-carbinol] + Nc1nc2[nH]cc(CCc3ccc(C(=O)N[C@@H](CCC(=O)O)C(=O)O)cc3)c2c(=O)[nH]1 [Pemetrexed] (partner 0.2 µM)
Method in brief: as §1

[3] = compound: OCc1c[nH]c2ccccc12 [Indole-3-carbinol] + Nc1ncn([C@H]2C[C@H](O)[C@@H](CO)O2)c(=O)n1 [Decitabine] (partner 2 µM)
Method in brief: as §1

[4] = compound: OCc1c[nH]c2ccccc12 [Indole-3-carbinol] + Cc1nc(NC(=O)N2CCC[C@H]2C(N)=O)sc1-c1ccnc(C(C)(C)C(F)(F)F)c1 [Alpelisib] (partner 2 µM)
Method in brief: as §1

[5] = compound: OCc1c[nH]c2ccccc12 [Indole-3-carbinol] + O=C(c1cc(Cc2n[nH]c(=O)c3ccccc23)ccc1F)N1CCN(C(=O)C2CC2)CC1 [Olaparib] (partner 8 µM)
Method in brief: as §1

Cell Line	relative viability ([1]; first compound 0.253 µM)	relative viability ([1]; first compound 0.8 µM)	relative viability ([1]; first compound 2.53 µM)	relative viability ([1]; first compound 8 µM)	relative viability ([2]; first compound 0.253 µM)	relative viability ([2]; first compound 0.8 µM)	relative viability ([2]; first compound 2.53 µM)	relative viability ([2]; first compound 8 µM)	relative viability ([3]; first compound 0.253 µM)	relative viability ([3]; first compound 0.8 µM)	relative viability ([3]; first compound 2.53 µM)	relative viability ([3]; first compound 8 µM)	relative viability ([4]; first compound 0.253 µM)	relative viability ([4]; first compound 0.8 µM)	relative viability ([4]; first compound 2.53 µM)	relative viability ([4]; first compound 8 µM)	relative viability ([5]; first compound 0.253 µM)	relative viability ([5]; first compound 0.8 µM)	relative viability ([5]; first compound 2.53 µM)	relative viability ([5]; first compound 8 µM)
NCI-H647	0.731	0.529	0.731	0.538	0.18	0.202	0.159	0.181	0.417	0.438	0.455	0.354	1.22	1.15	1.24	1.09	0.578	0.735	0.693	0.409
NCI-H2009	0.752	0.733	0.746	0.699	1.03	1.07	1.07	1.06	0.406	0.346	0.376	0.381	1.17	1.23	1.16	1.11	0.674	0.768	0.7	0.649
EPLC-272H	0.265	0.534	0.409	0.523	0.34	0.349	0.36	0.349	0.364	0.359	0.388	0.356	1.13	0.94	0.931	0.803	0.894	0.993	0.627	0.914
NCI-H520	0.707	0.7	0.87	0.692	0.671	0.687	0.69	0.757	0.526	0.541	0.505	0.541	0.911	1.07	1.04	0.849	0.336	0.341	0.383	0.265
NCI-H2405	1	1.03	0.971	0.978	1.15	1.04	0.972	1.03	0.829	0.711	0.852	0.635	0.901	0.661	0.988	0.749	0.907	0.889	0.908	0.823
NCI-H2085	0.867	0.751	0.753	0.687	0.965	0.927	0.932	0.758	0.5	0.63	0.483	0.506	0.905	1.06	1.05	0.854	0.9	0.844	0.773	0.691
NCI-H322M	0.713	0.8	0.902	0.779	0.562	0.685	0.546	0.636	0.725	0.659	0.722	0.675	0.774	0.82	0.86	0.8	0.779	0.692	0.773	0.725
NCI-H1944	0.529	0.472	0.595	0.523	0.663	0.539	0.649	0.641	0.46	0.456	0.441	0.404	0.871	0.805	0.725	0.822	0.38	0.348	0.388	0.368
LC-2-ad	0.765	0.742	0.696	0.662	0.282	0.276	0.246	0.263	0.715	0.883	0.71	0.774	0.91	0.874	0.945	0.856	0.768	0.737	0.696	0.656
NCI-H358	0.763	0.752	0.684	0.624	0.17	0.161	0.182	0.185	0.204	0.207	0.304	0.207	0.773	0.777	0.992	0.959	0.619	0.659	0.717	0.569
NCI-H2170	0.906	0.832	0.851	0.778	0.286	0.24	0.292	0.273	0.505	0.494	0.446	0.473	0.794	0.815	0.738	0.81	0.633	0.617	0.597	0.586
A-427	0.836	0.818	0.86	0.825	0.997	1.03	0.926	0.946	0.53	0.542	0.607	0.547	1.01	1.14	1.05	0.953	0.661	0.714	0.788	0.728
NCI-H1666	0.926	1.1	1.08	0.995	0.882	0.852	0.878	0.826	0.809	0.673	0.696	0.661	0.804	0.998	0.906	0.916	0.803	0.731	0.766	0.728
LOU-NH91	0.924	0.865	0.961	0.945	0.432	0.404	0.401	0.396	0.827	0.781	0.818	0.831	0.746	0.706	0.703	0.728	0.916	0.872	0.974	0.893
ABC-1	1.59	1.05	1.23	1.1	–	–	–	–	0.993	1.14	1.12	1.24	0.923	1.2	1.01	0.923	0.855	0.97	0.87	0.761
NCI-H1651	0.517	0.55	0.616	0.646	0.576	0.539	0.686	0.605	0.653	0.566	0.596	0.622	0.744	0.97	0.954	0.895	0.195	0.203	0.161	0.175
201T	1.1	0.88	0.978	0.927	0.345	0.354	0.362	0.322	0.819	0.834	0.885	0.844	0.954	1.04	1.06	1.06	0.849	0.856	0.843	0.848
NCI-H3122	1.05	1.05	1.06	0.885	0.195	0.21	0.203	0.203	0.462	0.414	0.37	0.451	0.878	0.879	0.855	0.74	0.65	0.612	0.495	0.538

Cell Line	relative viability ([1]; first compound 0.253 µM)	relative viability ([1]; first compound 0.8 µM)	relative viability ([1]; first compound 2.53 µM)	relative viability ([1]; first compound 8 µM)	relative viability ([2]; first compound 0.253 µM)	relative viability ([2]; first compound 0.8 µM)	relative viability ([2]; first compound 2.53 µM)	relative viability ([2]; first compound 8 µM)	relative viability ([3]; first compound 0.253 µM)	relative viability ([3]; first compound 0.8 µM)	relative viability ([3]; first compound 2.53 µM)	relative viability ([3]; first compound 8 µM)	relative viability ([4]; first compound 0.253 µM)	relative viability ([4]; first compound 0.8 µM)	relative viability ([4]; first compound 2.53 µM)	relative viability ([4]; first compound 8 µM)	relative viability ([5]; first compound 0.253 µM)	relative viability ([5]; first compound 0.8 µM)	relative viability ([5]; first compound 2.53 µM)	relative viability ([5]; first compound 8 µM)
A549	–	–	–	–	–	–	–	–	0.271	0.287	0.272	0.235	0.876	0.842	0.832	0.66	0.458	0.413	0.356	0.322
NCI-H727	1.13	1.12	1.36	1.23	–	–	–	–	0.997	0.782	0.884	0.825	0.583	0.562	0.535	0.603	0.616	0.694	0.657	0.634
NCI-H441	0.823	1.05	1.09	0.758	0.235	0.283	0.254	0.245	0.241	0.245	0.283	0.234	0.796	0.831	0.794	0.736	0.61	0.685	0.572	0.496
HOP-62	0.674	0.534	0.714	0.582	0.284	0.296	0.388	0.376	0.187	0.218	0.228	0.196	1.01	0.795	0.867	0.929	0.541	0.368	0.525	0.399
RERF-LC-KJ	0.687	0.622	0.656	0.726	0.47	0.461	0.482	0.466	0.741	0.69	0.716	0.62	0.841	0.783	0.814	0.83	0.878	0.93	0.957	0.801
HCC-44	1.15	1.16	1.12	1.03	0.679	0.659	0.694	0.541	0.983	0.986	0.971	0.91	0.788	0.845	0.851	0.773	1	1.02	0.966	0.962
LCLC-103H	0.894	0.736	0.829	0.706	0.444	0.493	0.462	0.468	0.789	0.675	0.668	0.623	0.869	0.882	0.923	0.899	0.732	0.734	0.763	0.633
NCI-H1915	0.511	0.512	0.495	0.518	0.466	0.527	0.513	0.511	0.255	0.246	0.275	0.27	1.05	1.05	1.07	1.03	0.253	0.243	0.282	0.25
ChaGo-K-1	0.792	0.729	0.76	0.73	0.258	0.258	0.27	0.257	0.523	0.55	0.525	0.519	–	–	–	–	0.427	0.45	0.415	0.387
PC-14	0.665	0.594	0.724	0.649	0.14	0.127	0.13	0.146	0.201	0.196	0.276	0.23	0.995	0.955	0.888	0.93	0.292	0.285	0.268	0.221
NCI-H1703	–	–	–	–	–	–	–	–	–	–	–	–	0.3	0.4	0.322	0.332	0.389	0.557	0.389	0.553
NCI-H2228	0.728	0.682	0.788	0.571	0.368	0.335	0.334	0.344	–	–	–	–	0.697	0.902	0.779	0.629	0.659	0.707	0.532	1.01
NCI-H1650	0.535	0.623	0.657	0.676	0.377	0.328	0.47	0.449	0.412	0.352	0.493	0.34	–	–	–	–	0.736	0.889	0.92	0.768
NCI-H1792	–	–	–	–	0.984	0.993	0.704	0.858	0.569	0.603	0.506	0.489	0.713	0.68	0.77	0.673	0.612	0.532	0.553	0.3
NCI-H1563	–	–	–	–	0.767	0.645	0.809	0.802	–	–	–	–	0.905	0.997	0.921	0.885	–	–	–	–
IA-LM	1.08	1.03	1.11	0.96	–	–	–	–	–	–	–	–	0.672	0.866	0.77	0.713	0.89	0.815	0.868	0.752
CAL-12T	0.844	0.808	0.908	0.741	1.28	1.44	1.12	1.24	–	–	–	–	1.04	1.61	1.47	1.17	0.672	0.834	0.717	0.66
